Measured values published in ChEMBL document CHEMBL5052840, “Pharmaceutical compounds and therapeutic methods” (2020).

Columns and labels:
[1] = Brain concentration in male C57BL/6 mouse at 10 mg/kg, ip administered as single dose measured at 0.35 hrs measured by LC/MS-MS analysis; assay type: ADME, organism-based; conditions: read-out: Drug uptake
[2] = Brain concentration in male C57BL/6 mouse at 10 mg/kg, ip administered as single dose measured at 24 hrs measured by LC/MS-MS analysis; assay type: ADME, organism-based; conditions: read-out: Drug uptake
[3] = Plasma concentration in male C57BL/6 mouse at 10 mg/kg, po administered as single dose measured at 6 hrs measured by LC/MS-MS analysis; assay type: ADME, organism-based
[4] = Brain concentration in male C57BL/6 mouse at 10 mg/kg, iv administered as single dose measured at 6 hrs measured by LC/MS-MS analysis; assay type: ADME, organism-based; conditions: read-out: Drug uptake
[5] = Brain concentration in male C57BL/6 mouse at 10 mg/kg, ip administered as single dose measured at 12 hrs measured by LC/MS-MS analysis; assay type: ADME, organism-based; conditions: read-out: Drug uptake
[6] = Ratio of drug level in male C57BL/6 mouse brain to plasma at 10 mg/kg, ip administered as single dose measured at 1 hr measured by LC/MS-MS analysis; assay type: ADME, organism-based; conditions: read-out: BPR
[7] = Ratio of drug level in male C57BL/6 mouse brain to plasma at 10 mg/kg, ip administered as single dose measured at 3 hrs measured by LC/MS-MS analysis; assay type: ADME, organism-based; conditions: read-out: BPR
[8] = Brain concentration in male C57BL/6 mouse at 10 mg/kg, iv administered as single dose measured at 0.35 hrs measured by LC/MS-MS analysis; assay type: ADME, organism-based; conditions: read-out: Drug uptake
[9] = Brain concentration in male C57BL/6 mouse at 10 mg/kg, ip administered as single dose measured at 6 hrs measured by LC/MS-MS analysis; assay type: ADME, organism-based; conditions: read-out: Drug uptake
[10] = Plasma concentration in male C57BL/6 mouse at 10 mg/kg, iv administered as single dose measured at 0.08 hrs measured by LC/MS-MS analysis; assay type: ADME, organism-based
[11] = Plasma concentration in male C57BL/6 mouse at 10 mg/kg, po administered as single dose measured at 3 hrs measured by LC/MS-MS analysis; assay type: ADME, organism-based
[12] = Efflux ratio of apparent permeability across basolateral to apical membrane over apical to basolateral membrane in human Caco-2 cells measured by LC-MS analysis; assay type: ADME, cell-based

For `Cc1nc2ccccn2c1-c1csc(Nc2ccc3c(c2)OC(F)(F)O3)n1.Cl`, the concentration at 0.35 h [1] was 680 ng/g, the concentration at 24 h [2] was 6.21 ng/g and the concentration at 6 h [3] was 2.5 ng/mL. The concentration at 6 h [4] was 5.13 ng/g, the concentration at 12 h [5] was 159 ng/g and the Kp at 1 h [6] was 2.78. It also gave a Kp at 3 h [7] of 1.6, a concentration at 0.35 h [8] of 514 ng/g and a concentration at 6 h [9] of 680 ng/g. The concentration at 0.08 h [10] was 1580 ng/mL, the concentration at 3 h [11] was 3.35 ng/mL and the Ratio [12] was 0.9.
